Experimental data as given in US20100298141A1, “SUBSTITUTED PYRIDINE N-OXIDE HERBICIDES” (E. I. DU PONT DE NEMOURS AND COMPANY, priority 2007, published 2010).

How the values were obtained:
[1] = test system: giant foxtail; experiment: Test A pre-/postemergence greenhouse test; format: in vivo, Setaria faberi; details: for Foxtail, Giant plant response rating: 0 to 100 scale; for Plant response rating, Foxtail, Giant: 0 to 100 scale where 0 is no effect and 100 is complete control
Outline: (§1)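 Each test compound, dissolved in a non-phytotoxic solvent mixture with surfactant, was sprayed directly onto seeded soil (loam/sand blend) and, at the same moment, onto seedlings carrying one to two leaves. Around ten greenhouse days later, plants were rated visually for injury relative to untreated controls.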

[2] = test system: Italian ryegrass; experiment: Test C pre-/postemergence test; format: in vivo, Lolium multiflorum; details: for Plant response rating (0 to 100), Ryegrass, Italian: 250 g ai/ha
Outline: (§2)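 Seeds were planted and treated preemergence with test chemical in a non-phytotoxic solvent mixture containing surfactant. Postemergence applications of the same formulation went onto plants 2 to 18 cm tall (1- to 4-leaf stage). A dash marks no test result.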

[3] = test system: umbrella sedge; experiment: Test C flooded paddy test; format: in vivo, Cyperus difformis; details: Flood
Outline: (§3)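 Visual injury ratings against untreated controls, taken 13 to 15 days after compound was added to paddy water standing 3 cm above the soil.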

[4] = test system: crabgrass; experiment: Test A pre-/postemergence greenhouse test; format: in vivo, Digitaria sanguinalis; details: for Crabgrass, Large plant response rating: 0 to 100 scale; for Plant response rating, Crabgrass, Large: 0 to 100 scale where 0 is no effect and 100 is complete control
Outline: as §1

[5] = test system: corn; experiment: Test A pre-/postemergence greenhouse test; format: in vivo, Zea mays; details: for Corn plant response rating: 0 to 100 scale; for Plant response rating, Corn: 0 to 100 scale where 0 is no effect and 100 is complete control
Outline: as §1

[6] = test system: Goosegrass; experiment: Test C pre-/postemergence test; format: in vivo, Eleusin indica; details: for Plant response rating (0 to 100), Goosegrass: 250 g ai/ha
Outline: as §2

[7] = test system: wheat; experiment: Test A pre-/postemergence greenhouse test; format: in vivo, Triticum aestivum; details: for Wheat plant response rating: 0 to 100 scale; for Plant response rating, Wheat: 0 to 100 scale where 0 is no effect and 100 is complete control
Outline: as §1

[8] = test system: common (oilseed) sunflower; experiment: Test C pre-/postemergence test; format: in vivo, Helianthus annuus; details: for Sunflower plant response rating: preemergence, scale 0 (no effect) to 100 (complete control); for Plant response rating (0 to 100), Sunflower: Preemergence, 250 g ai/ha
Outline: as §2

[9] = test system: bermudagrass; experiment: Test C pre-/postemergence test; format: in vivo, Cynodon dactylon; details: for Plant response rating (0 to 100), Bermudagrass: 250 g ai/ha
Outline: as §2

[10] = test system: barnyardgrass; experiment: Test C flooded paddy test; format: in vivo, Echinochloa crus-galli; details: Flood
Outline: as §3

[11] = test system: morningglory; experiment: Test C pre-/postemergence test; format: in vivo, Ipomoea coccinea; details: for Plant response rating (0 to 100), Morningglory: 250 g ai/ha
Outline: as §2

[12] = test system: morningglory; experiment: Test A pre-/postemergence greenhouse test; format: in vivo, Ipomoea spp.; details: for Morningglory plant response rating: 0 to 100 scale; for Plant response rating, Morningglory: 0 to 100 scale where 0 is no effect and 100 is complete control
Outline: as §1

[13] = test system: catchweed bedstraw; experiment: Test C pre-/postemergence test; format: in vivo, Galium aparine; details: for Plant response rating (0 to 100), Galium: 250 g ai/ha
Outline: as §2

[14] = test system: soybean; experiment: Test C pre-/postemergence test; format: in vivo, Glycine max; details: for Plant response rating (0 to 100), Soybean: 250 g ai/ha
Outline: as §2

[15] = test system: yellow nutsedge; experiment: Test C pre-/postemergence test; format: in vivo, Cyperus esculentus; details: for Plant response rating (0 to 100), Nutsedge, Yellow: 250 g ai/ha
Outline: as §2

[16] = test system: wheat; experiment: Test C pre-/postemergence test; format: in vivo, Triticum aestivum; details: for Wheat plant response rating: preemergence, scale 0 (no effect) to 100 (complete control); for Plant response rating (0 to 100), Wheat: Preemergence, 250 g ai/ha
Outline: as §2

[17] = test system: pigweed; experiment: Test C pre-/postemergence test; format: in vivo, Amaranthus retroflexus; details: for Plant response rating (0 to 100), Pigweed: 250 g ai/ha
Outline: as §2

[18] = Postemergence, 125 g ai/ha, 0 is no effect, 100 is complete control
[19] = Postemergence, 500 g ai/ha, 0 is no effect, 100 is complete control
[20] = Preemergence, 125 g ai/ha, 0 no effect, 100 complete control
[21] = 31 g ai/ha, Preemergence, scale 0 to 100
[22] = 62 g ai/ha, preemergence, scale 0 (no effect) to 100 (complete control)
[23] = preemergence, 125 g ai/ha, scale 0 (no effect) to 100 (complete control)
[24] = 31 g ai/ha, scale 0 to 100 (0 no effect, 100 complete control)
[25] = 62 g ai/ha, scale 0 to 100, 0 no effect, 100 complete control, 13 to 15 days
[26] = 125 g ai/ha, scale 0 to 100, 0 no effect, 100 complete control, 13 to 15 days
[27] = 250 g ai/ha, scale 0 to 100 (0 no effect, 100 complete control)

Cc1cc[n+]([O-])c(S(=O)(=O)C(C)c2c(C(F)(F)F)nn(C)c2Cl)c1 (racemic) [Compound 14]
Foxtail, Giant plant response rating [1, 18]: 70 | Foxtail, Giant plant response rating [1, 19]: 80 | Foxtail, Giant plant response rating [1, 20]: 90 | Plant response rating, Foxtail, Giant ([1]; Preemergence, 500 g ai/ha): 100 | Ryegrass, Italian plant response rating [2, 21]: 20 | Ryegrass, Italian plant response rating [2, 22]: 55 | Plant response rating (0 to 100), Ryegrass, Italian ([2]; Preemergence): 100 | Ryegrass, Italian plant response rating [2, 23]: 100 | Plant response rating, Sedge, Umbrella [3, 24]: 75 | Plant response rating, Sedge, Umbrella [3, 25]: 85 | Plant response rating, Sedge, Umbrella [3, 26]: 100 | Plant response rating, Sedge, Umbrella [3, 27]: 100 | Crabgrass, Large plant response rating [4, 18]: 40 | Crabgrass, Large plant response rating [4, 19]: 70 | Crabgrass, Large plant response rating [4, 20]: 90 | Plant response rating, Crabgrass, Large ([4]; Preemergence, 500 g ai/ha): 100 | Corn plant response rating [5, 18]: 0 | Corn plant response rating [5, 19]: 50 | Corn plant response rating [5, 20]: 0 | Plant response rating, Corn ([5]; Preemergence, 500 g ai/ha): 70 | Goosegrass plant response rating [6, 21]: 100 | Goosegrass plant response rating [6, 22]: 100 | Plant response rating (0 to 100), Goosegrass ([6]; Preemergence): 100 | Goosegrass plant response rating [6, 23]: 100 | Wheat plant response rating [7, 18]: 40 | Wheat plant response rating [7, 19]: 50 | Wheat plant response rating [7, 20]: 40 | Plant response rating, Wheat ([7]; Preemergence, 500 g ai/ha): 60 | Sunflower plant response rating ([8]; 62 g ai/ha): 85 | Plant response rating (0 to 100), Sunflower [8]: 100 | Sunflower plant response rating ([8]; 125 g ai/ha): 98 | Bermudagrass plant response rating [9, 21]: 80 | Bermudagrass plant response rating [9, 22]: 100 | Plant response rating (0 to 100), Bermudagrass ([9]; Preemergence): 100 | Bermudagrass plant response rating [9, 23]: 100 | Plant response rating, Barnyardgrass [10, 24]: 0 | Plant response rating, Barnyardgrass [10, 25]: 0 | Plant response rating, Barnyardgrass [10, 26]: 60 | Plant response rating, Barnyardgrass [10, 27]: 100 | Morningglory plant response rating [11, 21]: 5 | Morningglory plant response rating [11, 22]: 98 | Plant response rating (0 to 100), Morningglory ([11]; Preemergence): 100 | Morningglory plant response rating [11, 23]: 100 | Morningglory plant response rating [12, 18]: 30 | Morningglory plant response rating [12, 19]: 50 | Morningglory plant response rating [12, 20]: 10 | Plant response rating, Morningglory ([12]; Preemergence, 500 g ai/ha): 100 | Galium plant response rating [13, 21]: 0 | Galium plant response rating [13, 22]: 100 | Plant response rating (0 to 100), Galium ([13]; Preemergence): 100 | Galium plant response rating [13, 23]: 100 | Soybean plant response rating [14, 21]: 0 | Soybean plant response rating [14, 22]: 0 | Plant response rating (0 to 100), Soybean ([14]; Preemergence): 85 | Soybean plant response rating [14, 23]: 5 | Nutsedge, Yellow plant response rating [15, 21]: 40 | Nutsedge, Yellow plant response rating [15, 22]: 70 | Plant response rating (0 to 100), Nutsedge, Yellow ([15]; Preemergence): 100 | Nutsedge, Yellow plant response rating [15, 23]: 98 | Wheat plant response rating ([16]; 62 g ai/ha): 20 | Plant response rating (0 to 100), Wheat [16]: 80 | Wheat plant response rating ([16]; 125 g ai/ha): 50 | Pigweed plant response rating [17, 21]: 100 | Pigweed plant response rating [17, 22]: 100 | Plant response rating (0 to 100), Pigweed ([17]; Preemergence): 100 | Pigweed plant response rating [17, 23]: 100

Cn1nc(C(F)(F)F)c(C[S+]([O-])c2ccc(Br)c[n+]2[O-])c1OC(F)F (racemic) [Compound 16]
Foxtail, Giant plant response rating [1, 18]: 80 | Foxtail, Giant plant response rating [1, 19]: 90 | Foxtail, Giant plant response rating [1, 20]: 100 | Plant response rating, Foxtail, Giant ([1]; Preemergence, 500 g ai/ha): 100 | Ryegrass, Italian plant response rating [2, 21]: 30 | Ryegrass, Italian plant response rating [2, 22]: 50 | Plant response rating (0 to 100), Ryegrass, Italian ([2]; Preemergence): 100 | Ryegrass, Italian plant response rating [2, 23]: 55 | Plant response rating, Sedge, Umbrella [3, 24]: 0 | Plant response rating, Sedge, Umbrella [3, 25]: 0 | Plant response rating, Sedge, Umbrella [3, 26]: 0 | Plant response rating, Sedge, Umbrella ([3]; 250 g ai/ha, scale 0 to 100, 0 no effect, 100 complete control, 13 to 15 days): 0 | Crabgrass, Large plant response rating [4, 18]: 70 | Crabgrass, Large plant response rating [4, 19]: 90 | Crabgrass, Large plant response rating [4, 20]: 80 | Plant response rating, Crabgrass, Large ([4]; Preemergence, 500 g ai/ha): 100 | Corn plant response rating [5, 18]: 50 | Corn plant response rating [5, 19]: 60 | Corn plant response rating [5, 20]: 0 | Plant response rating, Corn ([5]; Preemergence, 500 g ai/ha): 60 | Goosegrass plant response rating [6, 21]: 98 | Goosegrass plant response rating [6, 22]: 100 | Plant response rating (0 to 100), Goosegrass ([6]; Preemergence): 100 | Goosegrass plant response rating [6, 23]: 100 | Wheat plant response rating [7, 18]: 60 | Wheat plant response rating [7, 19]: 70 | Wheat plant response rating [7, 20]: 60 | Plant response rating, Wheat ([7]; Preemergence, 500 g ai/ha): 80 | Sunflower plant response rating ([8]; 62 g ai/ha): 30 | Plant response rating (0 to 100), Sunflower [8]: 85 | Sunflower plant response rating ([8]; 125 g ai/ha): 50 | Bermudagrass plant response rating [9, 21]: 80 | Bermudagrass plant response rating [9, 22]: 98 | Plant response rating (0 to 100), Bermudagrass ([9]; Preemergence): 100 | Bermudagrass plant response rating [9, 23]: 100 | Plant response rating, Barnyardgrass [10, 24]: 0 | Plant response rating, Barnyardgrass [10, 25]: 0 | Plant response rating, Barnyardgrass [10, 26]: 0 | Plant response rating, Barnyardgrass [10, 27]: 0 | Morningglory plant response rating [11, 21]: 0 | Morningglory plant response rating [11, 22]: 10 | Plant response rating (0 to 100), Morningglory ([11]; Preemergence): 100 | Morningglory plant response rating [11, 23]: 95 | Morningglory plant response rating [12, 18]: 20 | Morningglory plant response rating [12, 19]: 60 | Morningglory plant response rating [12, 20]: 30 | Plant response rating, Morningglory ([12]; Preemergence, 500 g ai/ha): 80 | Galium plant response rating [13, 21]: 0 | Galium plant response rating [13, 22]: 100 | Plant response rating (0 to 100), Galium ([13]; Preemergence): 100 | Galium plant response rating [13, 23]: 100 | Soybean plant response rating [14, 21]: 0 | Soybean plant response rating [14, 22]: 30 | Plant response rating (0 to 100), Soybean ([14]; Preemergence): 80 | Soybean plant response rating [14, 23]: 60 | Nutsedge, Yellow plant response rating [15, 21]: 60 | Nutsedge, Yellow plant response rating [15, 22]: 80 | Plant response rating (0 to 100), Nutsedge, Yellow ([15]; Preemergence): 100 | Nutsedge, Yellow plant response rating [15, 23]: 85 | Wheat plant response rating ([16]; 62 g ai/ha): 30 | Plant response rating (0 to 100), Wheat [16]: 90 | Wheat plant response rating ([16]; 125 g ai/ha): 60 | Pigweed plant response rating [17, 21]: 100 | Pigweed plant response rating [17, 22]: 100 | Plant response rating (0 to 100), Pigweed ([17]; Preemergence): 100 | Pigweed plant response rating [17, 23]: 100
